Values after ≈ are worked out from the molar mass of the structure shown. Active and inactive are the calls of the source. No cut-off for these calls is given here.
Legend:
Acinetobacter baumannii [1] = experiment: Antibacterial activity against multi-drug resistant Acinetobacter baumannii Naval-81 assessed as inhibition of bacterial growth incubated for 16 to 18 hrs by CLSI protocol based method; assay type: functional; conditions: time 16-18 hrs, read-out: MIC100
Acinetobacter baumannii [2] = experiment: Antibacterial activity against carbapenem-resistant Acinetobacter baumannii BAA 1605 assessed as inhibition of bacterial growth incubated 24 hrs in presence of amikacin by checkerboard method; assay type: functional
Acinetobacter baumannii [3] = experiment: Antibacterial activity against carbapenem-resistant Acinetobacter baumannii BAA 1605 assessed as reduction in bacterial growth incubated for 24 hrs by time-kill kinetics analysis; assay type: functional, organism-based
Acinetobacter baumannii [4] = experiment: Antibacterial activity against multi-drug resistant Acinetobacter baumannii 5-032 assessed as inhibition of bacterial growth incubated for 16 to 18 hrs by CLSI protocol based method; assay type: functional; conditions: time 16-18 hrs, read-out: MIC100
Acinetobacter baumannii [5] = experiment: Antibacterial activity against multi-drug resistant Acinetobacter baumannii clinical isolate 8 assessed as inhibition of bacterial growth incubated for 16 to 18 hrs by CLSI protocol based method; assay type: functional; conditions: time 16-18 hrs, read-out: MIC100
Acinetobacter baumannii [6] = experiment: Antibacterial activity against carbapenem-resistant Acinetobacter baumannii BAA 1605 assessed as rifampicin MIC by measuring fractional inhibitory concentration incubated 24 hrs by checkerboard method relative to rifampicin alone; assay type: functional
Acinetobacter baumannii [7] = experiment: Antibacterial activity against multi-drug resistant Acinetobacter baumannii clinical isolate 9 assessed as inhibition of bacterial growth incubated for 16 to 18 hrs by CLSI protocol based method; assay type: functional; conditions: time 16-18 hrs, read-out: MIC100
Acinetobacter baumannii [8] = experiment: Antibacterial activity against multi-drug resistant Acinetobacter baumannii WL-487 assessed as inhibition of bacterial growth incubated for 16 to 18 hrs by CLSI protocol based method; assay type: functional; conditions: time 16-18 hrs, read-out: MIC100
Acinetobacter baumannii [9] = experiment: Antibacterial activity against multi-drug resistant Acinetobacter baumannii WL-136 assessed as inhibition of bacterial growth incubated for 16 to 18 hrs by CLSI protocol based method; assay type: functional; conditions: time 16-18 hrs, read-out: MIC100
Acinetobacter baumannii [10] = experiment: Synergistic antibacterial activity against carbapenem-resistant Acinetobacter baumannii BAA 1605 assessed as inhibition of bacterial growth by measuring tobramycin MIC incubated 24 hrs by checkerboard method; assay type: functional
[11] = Selectivity index, ratio of CC50 for cytotoxicity against African green monkey VERO cells to MIC for antibacterial activity against carbapenem-resistant Acinetobacter baumannii BAA 1605 assessed as inhibition of bacterial growth; assay type: toxicity, cell-based; conditions: read-out: Selectivity Index
Acinetobacter baumannii [12] = experiment: Antibacterial activity against carbapenem-resistant Acinetobacter baumannii BAA 1605 assessed as inhibition of bacterial growth by measuring fractional inhibitory concentration incubated 24 hrs in presence of levofloxacin by checkerboard method; assay type: functional
[13] = Cytotoxicity against African green monkey Vero cells assessed as reduction in cell viability incubated for 72 hrs by MTT assay; assay type: toxicity, cell-based; conditions: chlorocebus sabaeus
Acinetobacter baumannii [14] = experiment: Antibacterial activity against carbapenem-resistant Acinetobacter baumannii BAA 1605 assessed as polymyxin B MIC by measuring fractional inhibitory concentration incubated 24 hrs by checkerboard method relative to polymyxin B alone; assay type: functional
Acinetobacter baumannii [15] = experiment: Antibacterial activity against multi-drug resistant Acinetobacter baumannii Naval-17 assessed as inhibition of bacterial growth incubated for 16 to 18 hrs by CLSI protocol based method; assay type: functional; conditions: time 16-18 hrs, read-out: MIC100
Acinetobacter baumannii [16] = experiment: Antibacterial activity against carbapenem-resistant Acinetobacter baumannii BAA 1605 assessed as inhibition of bacterial growth by measuring polymyxin B MIC incubated 24 hrs by checkerboard method; assay type: functional
Acinetobacter baumannii [17] = experiment: Antibacterial activity against carbapenem-resistant Acinetobacter baumannii BAA 1605 assessed as levofloxacin MIC by measuring fractional inhibitory concentration incubated 24 hrs by checkerboard method relative to levofloxacin alone; assay type: functional
Klebsiella pneumoniae = experiment: Antibacterial activity against Klebsiella pneumoniae BAA 1705 assessed as inhibition of bacterial growth incubated for 16 to 18 hrs by CLSI protocol based method; assay type: functional; conditions: time 16-18 hrs, read-out: MIC100
Acinetobacter baumannii [18] = experiment: Antibacterial activity against carbapenem-resistant Acinetobacter baumannii BAA 1605 assessed as inhibition of bacterial growth incubated 24 hrs in presence of minocycline by checkerboard method; assay type: functional
Acinetobacter baumannii [19] = experiment: Synergistic antibacterial activity against carbapenem-resistant Acinetobacter baumannii BAA 1605 assessed as reduction in bacterial growth measured within 24 hrs in presence of tobramycin by time-kill kinetics analysis; assay type: functional, organism-based
Acinetobacter baumannii [20] = experiment: Antibacterial activity against multi-drug resistant Acinetobacter baumannii clinical isolate 6 assessed as inhibition of bacterial growth incubated for 16 to 18 hrs by CLSI protocol based method; assay type: functional; conditions: time 16-18 hrs, read-out: MIC100
Escherichia coli = experiment: Antibacterial activity against Escherichia coli ATCC 25922 assessed as inhibition of bacterial growth incubated for 16 to 18 hrs by CLSI protocol based method; assay type: functional; conditions: time 16-18 hrs, read-out: MIC100
Acinetobacter baumannii [21] = experiment: Antibacterial activity against carbapenem-resistant Acinetobacter baumannii BAA 1605 assessed as inhibition of bacterial growth by measuring minocycline MIC incubated 24 hrs by checkerboard method; assay type: functional
Acinetobacter baumannii [22] = experiment: Synergistic antibacterial activity against carbapenem-resistant Acinetobacter baumannii BAA 1605 assessed as inhibition of bacterial growth by measuring fractional inhibitory concentration incubated 24 hrs in presence of tobramycin by checkerboard method; assay type: functional
Acinetobacter baumannii [23] = experiment: Antibacterial activity against multi-drug resistant Acinetobacter baumannii 5-143 assessed as inhibition of bacterial growth incubated for 16 to 18 hrs by CLSI protocol based method; assay type: functional; conditions: time 16-18 hrs, read-out: MIC100
Acinetobacter baumannii [24] = experiment: Antibacterial activity against multi-drug resistant Acinetobacter baumannii BC-5 assessed as inhibition of bacterial growth incubated for 16 to 18 hrs by CLSI protocol based method; assay type: functional; conditions: time 16-18 hrs, read-out: MIC100
Acinetobacter baumannii [25] = experiment: Antibacterial activity against multi-drug resistant Acinetobacter baumannii clinical isolate 3 assessed as inhibition of bacterial growth incubated for 16 to 18 hrs by CLSI protocol based method; assay type: functional; conditions: time 16-18 hrs, read-out: MIC100
Acinetobacter baumannii [26] = experiment: Antibacterial activity against Acinetobacter baumannii ATCC 17978 assessed as inhibition of bacterial growth incubated for 16 to 18 hrs by CLSI protocol based method; assay type: functional; conditions: time 16-18 hrs, read-out: MIC100
Acinetobacter baumannii [27] = experiment: Antibacterial activity against multi-drug resistant Acinetobacter baumannii 5-189 assessed as inhibition of bacterial growth incubated for 16 to 18 hrs by CLSI protocol based method; assay type: functional; conditions: time 16-18 hrs, read-out: MIC100
Acinetobacter baumannii [28] = experiment: Antibacterial activity against multi-drug resistant Acinetobacter baumannii clinical isolate 5 assessed as inhibition of bacterial growth incubated for 16 to 18 hrs by CLSI protocol based method; assay type: functional; conditions: time 16-18 hrs, read-out: MIC100
Acinetobacter baumannii [29] = experiment: Antibacterial activity against multi-drug resistant Acinetobacter baumannii Naval-18 assessed as inhibition of bacterial growth incubated for 16 to 18 hrs by CLSI protocol based method; assay type: functional; conditions: time 16-18 hrs, read-out: MIC100
Acinetobacter baumannii [30] = experiment: Antibacterial activity against carbapenem-resistant Acinetobacter baumannii BAA 1605 assessed as inhibition of bacterial growth by measuring rifampicin MIC incubated 24 hrs by checkerboard method; assay type: functional
Acinetobacter baumannii [31] = experiment: Antibacterial activity against carbapenem-resistant Acinetobacter baumannii BAA 1605 assessed as inhibition of bacterial growth incubated 24 hrs in presence of polymyxin B by checkerboard method; assay type: functional
Acinetobacter baumannii [32] = experiment: Antibacterial activity against multi-drug resistant Acinetobacter baumannii clinical isolate 12 assessed as inhibition of bacterial growth incubated for 16 to 18 hrs by CLSI protocol based method; assay type: functional; conditions: time 16-18 hrs, read-out: MIC100
Acinetobacter baumannii [33] = experiment: Antibacterial activity against carbapenem-resistant Acinetobacter baumannii BAA 1605 assessed as inhibition of bacterial growth by measuring amikacin MIC incubated 24 hrs by checkerboard method; assay type: functional
Acinetobacter baumannii [34] = experiment: Antibacterial activity against carbapenem-resistant Acinetobacter baumannii BAA 1605 assessed as tobramycin MIC by measuring fractional inhibitory concentration incubated 24 hrs by checkerboard method relative to tobramycin alone; assay type: functional
Acinetobacter baumannii [35] = experiment: Antibacterial activity against carbapenem-resistant Acinetobacter baumannii BAA 1605 assessed as inhibition of bacterial growth by measuring fractional inhibitory concentration incubated 24 hrs in presence of amikacin by checkerboard method; assay type: functional

Compound: O=C(CCN1C(=O)c2cccc3cccc(c23)C1=O)NNc1ccc(Br)cc1
- MIC (Acinetobacter baumannii [1]): 0.5 µg/mL (≈ 1.14 µM)
- MIC (Acinetobacter baumannii [2]): 0.25 µg/mL
- Activity (Acinetobacter baumannii [3]): inactive
- MIC (Acinetobacter baumannii [4]): 0.5 µg/mL (≈ 1.14 µM)
- MIC (Acinetobacter baumannii [5]): 0.5 µg/mL (≈ 1.14 µM)
- FIC (Acinetobacter baumannii [6]): 0.5
- MIC (Acinetobacter baumannii [7]): 0.5 µg/mL (≈ 1.14 µM)
- MIC (Acinetobacter baumannii [8]): 0.5 µg/mL (≈ 1.14 µM)
- MIC (Acinetobacter baumannii [9]): 0.5 µg/mL (≈ 1.14 µM)
- MIC (Acinetobacter baumannii [10]): 1 µg/mL
- selectivity ratio [11]: > 200
- FIC (Acinetobacter baumannii [12]): 1
- CC50 at 72 h [13]: > 100 µg/mL
- FIC (Acinetobacter baumannii [14]): 0.5
- MIC (Acinetobacter baumannii [15]): 1 µg/mL (≈ 2.28 µM)
- MIC (Acinetobacter baumannii [16]): 0.25 µg/mL
- FIC (Acinetobacter baumannii [17]): 1
- MIC (Klebsiella pneumoniae): > 64 µg/mL
- MIC (Acinetobacter baumannii [18]): 1 µg/mL
- Activity (Acinetobacter baumannii [19]): Active
- MIC (Acinetobacter baumannii [20]): 0.5 µg/mL (≈ 1.14 µM)
- MIC (Escherichia coli): > 64 µg/mL
- MIC (Acinetobacter baumannii [21]): 4 µg/mL
- FIC (Acinetobacter baumannii [22]): 0.25
- MIC (Acinetobacter baumannii [23]): 0.25 µg/mL (≈ 0.57 µM)
- MIC (Acinetobacter baumannii [24]): 0.5 µg/mL (≈ 1.14 µM)
- MIC (Acinetobacter baumannii [25]): 0.25 µg/mL (≈ 0.57 µM)
- MIC (Acinetobacter baumannii [26]): 0.5 µg/mL (≈ 1.14 µM)
- MIC (Acinetobacter baumannii [27]): 0.5 µg/mL (≈ 1.14 µM)
- MIC (Acinetobacter baumannii [28]): 1 µg/mL (≈ 2.28 µM)
- MIC (Acinetobacter baumannii [29]): 0.5 µg/mL (≈ 1.14 µM)
- MIC (Acinetobacter baumannii [30]): 2 µg/mL
- MIC (Acinetobacter baumannii [31]): 0.25 µg/mL
- MIC (Acinetobacter baumannii [32]): 0.5 µg/mL (≈ 1.14 µM)
- MIC (Acinetobacter baumannii [33]): 2 µg/mL
- FIC (Acinetobacter baumannii [34]): 0.25
- FIC (Acinetobacter baumannii [35]): 0.25
